Experimental data from patent US20230149355A1, “COMPOSITIONS AND METHODS FOR MODULATING TRP CHANNEL ACTIVITY” (priority 2020, published 2023).
One block for each compound: values may come before it.

Legend:
human TRPA1 = human TRPA1 (Homo sapiens, UniProt O75762); assay: Ca2+ influx (Calcium 6 fluorescence) in human TRPA1 expressing HEK-293T cells; type: cell-based
Protocol: (§1) HEK-293T cells were cultured in DMEM (Thermofisher Scientific, Waltham, Mass.) and supplemented with 10% fetal bovine serum (FBS) (Thermofisher Scientific), penicillin (100 units/mL) and streptomycin (0.1 mg/mL). Cells were plated on 100 mm tissue culture plates coated with poly-D-lysine (Sigma Aldrich, Saint Louis, Mo.) and grown to ˜60% confluence. The cells were transiently transfected for 16-24 hours with either human or mouse orthologs of TRPA1 using Fugene 6 transfection reagents and Opti-MEM (Thermofisher Scientific) according to the manufacturer's protocol. Subsequently, cells were trypsinized, re-suspended and re-plated onto poly-D-lysine coated 96-well plates (Krystal black walled plates, Genesee Scientific) at 5×10^5 cells/mL (100 μL/well) and allowed to grow for another 16-20 hrs prior to the experiments. Cells were maintained as monolayers in a 5% CO2 incubator at 37° C.
(§2) Measurements of changes in intracellular Ca^2+ concentrations ([Ca^2+]i) were performed as described previously (Caceres et al., 2017). In brief, cells in 96-well plates were loaded with Calcium 6, a no-wash fluorescent indicator, for 1.5 hrs (Molecular Devices, San Jose, Calif.) and then transferred to a FlexStation III benchtop scanning fluorometer chamber (Molecular Devices). Fluorescence measurements in the FlexStation were performed at 37° C. (Ex:485 nm, Em: 525 nm at every 1.8 s). After recording baseline fluorescence, agonists (indole, IAld, cinnamaldehyde) were added and fluorescence was monitored for a total of 60 s. […] The change in fluorescence was measured as Fmax-F0, where Fmax is the maximum fluorescence and F0 is the baseline fluorescence measured in each well.

mouse TRPA1 = target: T1, mouse TRPA1 (Mus musculus, UniProt Q8BLA8); assay: Ca2+ influx (Calcium 6 fluorescence) in mouse Trpa1-expressing HEK-293T cells; type: cell-based
T1 construct: expressed in transfected cells; host or cells: HEK-293T
T1 sequence (Q8BLA8 whole entry): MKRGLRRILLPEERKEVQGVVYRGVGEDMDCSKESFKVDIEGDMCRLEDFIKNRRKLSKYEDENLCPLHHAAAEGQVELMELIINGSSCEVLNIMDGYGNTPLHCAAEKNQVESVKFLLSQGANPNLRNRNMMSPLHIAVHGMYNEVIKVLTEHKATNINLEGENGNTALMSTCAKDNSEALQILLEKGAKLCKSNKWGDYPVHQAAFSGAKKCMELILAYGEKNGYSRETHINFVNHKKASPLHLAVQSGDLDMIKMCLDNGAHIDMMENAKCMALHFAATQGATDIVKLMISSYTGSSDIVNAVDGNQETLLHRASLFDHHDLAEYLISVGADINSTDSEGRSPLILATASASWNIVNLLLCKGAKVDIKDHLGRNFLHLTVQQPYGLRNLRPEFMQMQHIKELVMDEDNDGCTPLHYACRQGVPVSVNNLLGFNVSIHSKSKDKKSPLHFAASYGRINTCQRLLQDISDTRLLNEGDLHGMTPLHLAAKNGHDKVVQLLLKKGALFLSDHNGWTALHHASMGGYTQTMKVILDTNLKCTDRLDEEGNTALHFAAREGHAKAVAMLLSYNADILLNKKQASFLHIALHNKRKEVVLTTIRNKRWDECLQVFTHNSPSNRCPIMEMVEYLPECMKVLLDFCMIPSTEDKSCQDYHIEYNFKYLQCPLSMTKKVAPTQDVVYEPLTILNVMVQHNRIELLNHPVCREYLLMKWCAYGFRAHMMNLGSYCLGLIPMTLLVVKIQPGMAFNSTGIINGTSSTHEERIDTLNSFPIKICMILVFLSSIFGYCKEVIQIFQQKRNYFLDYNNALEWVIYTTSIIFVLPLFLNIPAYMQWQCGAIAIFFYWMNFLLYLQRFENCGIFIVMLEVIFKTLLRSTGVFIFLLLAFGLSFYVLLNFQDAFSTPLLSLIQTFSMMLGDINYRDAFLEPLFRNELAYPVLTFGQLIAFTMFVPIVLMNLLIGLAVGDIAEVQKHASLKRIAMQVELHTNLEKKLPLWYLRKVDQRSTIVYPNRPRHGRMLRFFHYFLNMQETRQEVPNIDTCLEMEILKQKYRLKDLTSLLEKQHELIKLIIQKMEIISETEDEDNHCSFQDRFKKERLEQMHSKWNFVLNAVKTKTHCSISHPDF
Protocol: as §1, §2

E. tarda = assay: Intestinal E. tarda mCherry accumulation in zebrafish treated with AhR inhibitors; type: in vivo; details: AhR inhibitor 1 μM or folic acid 10 μM, 3 dpf to 6 dpf
Protocol: For E. tarda colonization experiments, fertilized zebrafish eggs were collected, sorted and transferred into a cell culture flask containing 80 mL GZM at 0 dpf. At 3 dpf, dead embryos and 60 mL GZM were removed and replaced with 50 mL fresh GZM in each flask. To facilitate consistent commensal gut bacterial colonization, an additional 10 mL of filtered system water (5 μm filter, SLSV025LS, Millipore) were added to each flask. Overnight E. tarda mCherry culture was harvested, washed three times with GZM. 150 μL of GZM-washed E. tarda mCherry culture were inoculated into each flask. The E. tarda concentration is ˜10^6 CFU/ml. […] At 6 dpf, zebrafish larvae were subjected to fluorescence imaging analysis or CFU quantification. For fluorescence imaging analysis, zebrafish larvae were anesthetized with Tricaine ([…]), mounted in 3% methylcellulose and imaged with a Leica M205 FA upright fluorescence stereomicroscope equipped with a Leica DFC 365FX camera. For CFU quantification, digestive tracts were dissected and transferred into 1 mL sterile PBS which was then mechanically disassociated using a Tissue-Tearor (BioSpec Products, 985370). […] The mCherry+ colonies were quantified from each plate and E. tarda colony forming units (CFUs) per fish were calculated. […]

AhR signaling = details: 2-hour 10 μM and 3-day 0.5 μM treatment; cited from earlier work
intestinal motility = assay: Zebrafish intestinal motility (PIV-Lab velocity analysis); type: in vivo
Description: The zebrafish intestinal motility is quantified through recorded image series of zebrafish intestine using the method similar as previously described (Ganz et al., 2018). Intestinal p velocity and v velocity were used to estimate intestinal motility in zebrafish as previously described using the PIV-Lab MATLAB app (Ganz et al., 2018). A positive value of the μ velocity indicates an anterograde intestinal movement and a negative value of the μ velocity indicates a retrograde intestinal movement. The time-course p velocity number is plotted as heatmaps. When calculating the mean velocity, only the mean velocity magnitude was calculated, which therefore doesn't account for the movement direction. The MTrackJ FIJI plugin was used to quantify the mean velocity magnitude (Meijering et al., 2012).

zebrafish EECs (Trpa1) = assay: In vivo EEC calcium, Tg(neurod1:Gcamp6f) zebrafish
Protocol: To record in vivo EEC activity using the Tg(neurod1:Gcamp6f) system, a published protocol with slight modification (Ye et al., 2019) was used. In brief, unanesthetized zebrafish larvae were gently mounted in 3% methylcellulose. Excess water was removed and zebrafish larvae were gently positioned with right side up. Zebrafish were then moved onto an upright Leica M205 FA fluorescence stereomicroscope equipped with a Leica DFC 365FX camera. The zebrafish larvae were allowed to recover for 2 mins before 100 μL of test agent was pipetted directly in front of the mouth region. Images were then recorded every 10 seconds. The data shown in FIG. 2O-R, depicting the EEC responses to E. tarda stimulation, were obtained by mounting unanesthetized zebrafish larvae in 1% low melting agarose. A window (5×5 mm) was cut to expose the head region of the zebrafish. 10 μL of E. tarda culture [˜10^9 Colony Forming Unit (CFU)] were delivered at the zebrafish mouth area. Images were recorded every 10 secs for 20 mins. Image processing and analysis were performed using FIJI software. Time-lapse fluorescence images were first aligned to correct for experimental drift using the plugin “align slices in stack.” Normalized correlation coefficient matching and bilinear interpolation methods for subpixel translation were used for aligning slices (Tseng et al., 2012). The plugin “rolling ball background subtraction” with the rolling ball radius=10 pixels was used to remove the large spatial variation of background intensities. The Gcamp6f fluorescence intensity in the intestinal region was then calculated for each time point. The ratio of maximum fluorescence (Fmax) and the initial fluorescence (F0) was used to measure EEC calcium responses.
For EEC Trpa1 activation using the Optovin platform, zebrafish larvae were treated with 10 μM Optovin overnight. Following Optovin treatment, unanesthetized zebrafish were mounted in 1% LMA and imaged under a 780 upright Zeiss confocal microscope using 20× water objective lenses. For all the experiments, the mid-intestine region was imaged (FIG. 10D). The intestinal epithelium was selected as the region of interest (ROI) (FIG. 10A). Serial images were obtained at 1 s/frame. A 405 nm pulse of light was applied to the ROI at 1 pulse/10 s. For some experiments (FIG. 7D-F, FIG. 10B-G), the images were obtained at 10 s/frame. When measuring Optovin effects on intestinal motility in ret−/−, sox10−/− or tph1b−/− zebrafish larvae, embryos were collected from heterozygous zebrafish. ret−/− zebrafish were identified by lack of ENS and deflated swim bladder (Knight et al., 2011), sox10−/− zebrafish were identified by lack of pigment (Rolig et al., 2017), and tph1b−/− zebrafish were identified by PCR-based genotyping (Tornini et al., 2017).
To determine whether Optovin-UV or ChR2 was sufficient to activate EECs, Tg(neurod1:Gcamp6f) zebrafish were used. […] The Gcamp6f signal was recorded with 488 nm laser intensity less than 0.5. The zebrafish intestinal motility is quantified through recorded image series of zebrafish intestine using the method similar as previously described (Ganz et al., 2018). […] When calculating the mean velocity, only the mean velocity magnitude was calculated, which therefore doesn't account for the movement direction. The MTrackJ FIJI plugin was used to quantify the mean velocity magnitude (Meijering et al., 2012).

vagal sensory neurons = assay: In vivo calcium imaging of vagal sensory ganglia after microgavage; design: species or system zebrafish; details: WT; enteric microgavage ~8 nl, AITC 100 mM, indole 1 mM, IAld 1 mM
Protocol: For delivering bacterial or chemicals specifically to the intestine, the established microgavage technique (Cocchiaro and Rawls, 2013) was adopted. Zebrafish were anesthetized with 1 mg/mL α-Bungarotoxin (α-BTX) and the gavage procedure was performed as previously described using microinjection station (Cocchiaro and Rawls, 2013). For bacteria gavage experiments, 1 ml of overnight bacterial culture was harvested, pelleted, washed with PBS and resuspended in 100 ul PBS.˜8 nl was then delivered into the zebrafish intestine using microgavage. The gavaged zebrafish was then transferred into egg water and mounted in 1% LMA for imaging. For chemical gavage experiments, ˜8 nl of AITC (100 mM), indole (1 mM) and IAld (1 mM) was gavaged into the intestine.
Tg(neurod1:Gcamp6f); Tg(neurod1:TagRFP) zebrafish were used to record vagal sensory ganglia calcium activity in vivo. Zebrafish were anesthetized with 1 mg/mL α-Bungarotoxin (α-BTX) and gavaged with chemical compounds or bacteria as described (Naumann et al., 2016). Zebrafish larvae were mounted in 1% LMA and imaged under a Zeiss 780 upright confocal microscope. Z-stack images of the entire vagal ganglia were collected as serial images at 10 mins/frame and processed in FIJI. Individual vagal sensory neurons were identified and the Gcamp6f to TagRFP fluorescence ratios of individual vagal sensory neurons were calculated.

human TRPA1, sequence (O75762 whole entry): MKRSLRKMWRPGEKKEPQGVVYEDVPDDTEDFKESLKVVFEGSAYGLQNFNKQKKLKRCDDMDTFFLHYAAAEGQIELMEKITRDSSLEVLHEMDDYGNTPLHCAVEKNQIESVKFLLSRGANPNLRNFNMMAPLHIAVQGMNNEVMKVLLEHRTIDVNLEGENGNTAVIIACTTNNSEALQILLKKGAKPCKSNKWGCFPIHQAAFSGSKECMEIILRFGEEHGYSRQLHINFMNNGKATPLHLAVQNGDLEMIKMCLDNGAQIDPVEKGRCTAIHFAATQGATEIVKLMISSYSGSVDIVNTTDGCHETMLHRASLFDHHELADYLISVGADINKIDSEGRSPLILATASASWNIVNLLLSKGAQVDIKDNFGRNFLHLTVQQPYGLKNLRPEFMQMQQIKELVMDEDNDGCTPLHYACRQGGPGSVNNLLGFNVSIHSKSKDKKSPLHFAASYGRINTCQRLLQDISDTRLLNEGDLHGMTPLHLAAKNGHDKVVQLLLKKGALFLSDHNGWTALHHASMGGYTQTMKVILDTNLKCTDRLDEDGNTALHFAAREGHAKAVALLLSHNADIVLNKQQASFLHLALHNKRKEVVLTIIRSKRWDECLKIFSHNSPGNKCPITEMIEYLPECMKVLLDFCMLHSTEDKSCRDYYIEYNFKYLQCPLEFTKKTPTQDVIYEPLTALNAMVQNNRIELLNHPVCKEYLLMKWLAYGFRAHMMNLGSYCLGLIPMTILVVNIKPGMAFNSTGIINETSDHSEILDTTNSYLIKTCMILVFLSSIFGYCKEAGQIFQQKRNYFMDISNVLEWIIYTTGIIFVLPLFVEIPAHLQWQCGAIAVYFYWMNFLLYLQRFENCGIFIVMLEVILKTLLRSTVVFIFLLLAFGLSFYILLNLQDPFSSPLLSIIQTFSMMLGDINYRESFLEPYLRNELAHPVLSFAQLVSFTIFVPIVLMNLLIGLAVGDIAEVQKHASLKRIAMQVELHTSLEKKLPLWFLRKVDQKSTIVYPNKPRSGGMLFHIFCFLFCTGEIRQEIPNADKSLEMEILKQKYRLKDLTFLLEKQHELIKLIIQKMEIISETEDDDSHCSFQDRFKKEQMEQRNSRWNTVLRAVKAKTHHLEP

Effect on indole- and IAld-induced human Trpa1 activation (human TRPA1; human): blocked
Effect on indole- and IAld-induced mouse Trpa1 activation (mouse TRPA1; mouse): blocked
IC50 (mouse TRPA1; mouse Trpa1-expressing HEK-293T cells, normalized to 100 μM Indole): 0.315 µM
SMILES: CCC(=N\O)/C(C)=C/c1ccc(F)cc1 [A967079]

SMILES: Cc1ccccc1N=Nc1ccc(NC(=O)c2ccnn2C)c(C)c1 [CH223191]
Effect on E. tarda intestinal accumulation (E. tarda): insufficient to block
Inhibition of larvae zebrafish AhR signaling (AhR signaling): sufficient to inhibit
Effect on Optovin-UV induced intestinal motility change (intestinal motility; AhR inhibitor 10 μM or folic acid 10 μM for 2 hours): insufficient to block

SMILES: O=Cc1c[nH]c2ccccc12 [IAld, indole-3-carboxaldehyde]
Zebrafish EEC activation (Gcamp6f fluorescence) (zebrafish EECs (Trpa1); trpa1b-dependent): strongly activated
Gcamp6f fluorescence in a subset of vagal sensory neurons (vagal sensory neurons): increased
Activation of human TRPA1 receptor transfected into HEK cells (human TRPA1): activated
TRPA1 agonist efficacy (human TRPA1; efficiency comparable to cinnamaldehyde (CAD)): full TRPA1 agonist activity
EC50 (human TRPA1; human TRPA1 expressing HEK-293T cells, normalized to 1 mM cinnamaldehyde (CAD), read-out: EC50, integrated Calcium 6 fluorescence response above baseline (Fmax-F0; maximal change in Ca2+ influx)): 77.7 µM
Activation of mouse Trpa1 (mouse TRPA1; compared with human TRPA1): activated mouse Trpa1, but in a less potent manner
EC50 (mouse TRPA1; mouse TRPA1, normalized to 1 mM cinnamaldehyde (CAD), read-out: EC50, dose-response effects on mouse TRPA1): 189 µM

SMILES: Cc1cc(/C=C2/SC(=S)NC2=O)c(C)n1-c1cccnc1 [Optovin]
EEC [Ca2+]i (Gcamp6f fluorescence) after UV light activation (zebrafish EECs (Trpa1); WT larvae pretreated with Optovin 10 μM overnight, 405 nm): significantly increased
EEC [Ca2+]i after UV light exposure (zebrafish EECs (Trpa1); trpa1b−/− larvae pretreated with Optovin): did not increase
Intestinal motility after Optovin treatment and UV activation (intestinal motility; EEC-ablated zebrafish): failed to induce intestinal motility
Velocity of intestinal motility after Optovin-UV Trpa1 activation (intestinal motility; WT larvae, middle intestine): increased
